Our source for the IC50 values is US12435092B2, “Substituted imidazo[1,2-A]quinazolines as inhibitors of PARG” (858 Therapeutics, Inc., priority 2022, dated 2025).

A value given as a limit tells only on which side of the number the result lay.

This assay deals with T1, cellular PARG (Homo sapiens, UniProt Q86W56).
T1 construct: endogenous in cells; host or cells: HeLa
T1 sequence (Q86W56 whole entry): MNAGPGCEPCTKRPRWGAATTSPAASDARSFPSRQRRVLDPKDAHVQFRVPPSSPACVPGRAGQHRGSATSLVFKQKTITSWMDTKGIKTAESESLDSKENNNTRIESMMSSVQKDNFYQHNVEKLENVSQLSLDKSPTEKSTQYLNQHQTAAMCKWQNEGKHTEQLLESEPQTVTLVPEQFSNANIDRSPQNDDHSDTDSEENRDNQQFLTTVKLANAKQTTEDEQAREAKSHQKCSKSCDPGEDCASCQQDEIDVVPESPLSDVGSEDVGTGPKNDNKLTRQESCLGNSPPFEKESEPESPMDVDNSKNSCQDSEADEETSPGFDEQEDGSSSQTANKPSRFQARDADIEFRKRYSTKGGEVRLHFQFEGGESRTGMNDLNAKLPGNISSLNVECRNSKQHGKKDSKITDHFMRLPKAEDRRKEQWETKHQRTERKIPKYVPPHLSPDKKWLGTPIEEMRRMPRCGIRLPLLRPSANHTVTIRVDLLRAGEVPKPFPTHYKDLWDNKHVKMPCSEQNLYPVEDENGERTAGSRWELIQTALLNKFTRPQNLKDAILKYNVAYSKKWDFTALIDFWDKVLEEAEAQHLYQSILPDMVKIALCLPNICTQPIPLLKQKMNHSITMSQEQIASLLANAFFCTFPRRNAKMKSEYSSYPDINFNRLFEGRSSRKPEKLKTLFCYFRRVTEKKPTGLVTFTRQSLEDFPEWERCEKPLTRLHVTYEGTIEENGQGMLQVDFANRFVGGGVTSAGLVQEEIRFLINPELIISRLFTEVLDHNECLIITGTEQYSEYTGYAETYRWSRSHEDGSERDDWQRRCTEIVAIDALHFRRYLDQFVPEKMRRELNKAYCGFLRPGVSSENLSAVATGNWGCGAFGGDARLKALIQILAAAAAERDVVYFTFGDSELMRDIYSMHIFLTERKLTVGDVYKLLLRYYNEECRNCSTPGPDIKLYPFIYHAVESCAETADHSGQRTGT
As to the kind of experiment: Nuclear PAR accumulation assay (immunofluorescence high-content imaging). Format: cell-based. Conditions: HeLa cells, 1 hour compound treatment then MMS 50 μg/mL for an additional hour. The method, then: Compound IC50 values for inhibition of cellular PARG were determined using an immunofluorescence high-content imaging assay for nuclear PAR accumulation. HeLa cells were plated at 15,000 cells/well in a 96-well plate the day before compound treatment and then treated with varying concentrations of test compound and incubated for 1 hour at 37° C.+5% CO2. Following test compound treatment, methylmethane sulfonate (MMS) was added to a final concentration of 50 μg/mL and the cells were incubated for an additional hour. Following treatment, the cells were fixed with ice cold 95% methanol and the plates sealed and placed at −20° C. for 15 minutes. The cells were then washed once with phosphate buffered saline (PBS) and permeabilized with 0.1% Triton-X 100 for 20 minutes at room temperature. The cells were again washed once with PBS and incubated with an anti-poly-ADP ribose (PAR) monoclonal antibody (Millipore Part #AM80 clone 10H) diluted 1:1,000 in 5% fetal bovine serum +0.1% Tween-20+PBS overnight at 4° C. The cells were then washed three times with PBS before incubation with a fluorescently conjugated goat anti-mouse antibody (Invitrogen A32723) diluted 1:500 in 5% FBS+0.1% Tween-20+PBS for 1 hour at room temperature. The cells were again washed three times with PBS and the nuclei labeled by incubating with 1 μg/mL DAPI (4′,6-diamidino-2-phenylindole). Nuclear PAR accumulation was evaluated using high-content fluorescence microscopy. Four fields for each well were acquired at 20× magnification resulting in at least 1,000 cells analyzed per well. Using high-content software (CellReporterXpress) the nuclei were detected and segmented using the DAPI channel and the fluorescence intensity of the PAR-Alexa 488 channel was quantified within the nuclei regions. Both the average intensity per nucleus and percent PAR positive cells were quantified. Percent PAR positive cells were identified by having greater anti-PAR labeling above the threshold set with vehicle DMSO treated control cells. Percent inhibition of PARG by test compounds was calculated by normalizing the data to the 0.1% DMSO and reference compound control values, which represent 0% and 100% inhibition of enzymatic activity, respectively. Concentration-response-curves and IC50 values were generated using four parameter logistic curve fit software.
Regarding `C[C@@H]1CN=C2N(Cc3cnn(C)c3)C(=O)c3cc(S(=O)(=O)NC4(C)CC4)ccc3N21` [Example 46, (R)-1-methyl-4-((1-methyl-1H-pyrazol-4-yl)methyl)-N-(1-methylcyclopropyl)-5-oxo-1,2,4,5-tetrahydroimidazo[1,2-a]quinazoline-7-sulfonamide], the IC50 (usually the midpoint of a concentration-inhibition curve) is at most 100 nM. As for `CCN1C(=O)c2cc(S(=O)(=O)NC3(C)CC3)ccc2N2C1=NC[C@H]2C` [Example 47, (R)-4-ethyl-1-methyl-N-(1-methylcyclopropyl)-5-oxo-1,2,4,5-tetrahydroimidazo[1,2-a]quinazoline-7-sulfonamide], the half-inhibitory concentration (IC50) fell in the range of 100 to 1000 nM.

The compound `CN1C(=O)c2cc(S(=O)(=O)NC3(C)CC3)ccc2N2C1=NCC2C1CC1` (stereo not shown) [Example 48, 1-cyclopropyl-4-methyl-N-(1-methylcyclopropyl)-5-oxo-1,2,4,5-tetrahydroimidazo[1,2-a]quinazoline-7-sulfonamide] returned an IC50 of 100 to 1000 nM. `CC(C)C1CN=C2N(C)C(=O)c3cc(S(=O)(=O)NC4(C)CC4)ccc3N21` (stereo not shown) [Example 49, 1-isopropyl-4-methyl-N-(1-methylcyclopropyl)-5-oxo-1,2,4,5-tetrahydroimidazo[1,2-a]quinazoline-7-sulfonamide] had an IC50 of 1000 to 10000 nM.

Compound `CCC1CN=C2N(C)C(=O)c3cc(S(=O)(=O)NC4(C)CC4)ccc3N21` (stereo not shown) [Example 50, 1-ethyl-4-methyl-N-(1-methylcyclopropyl)-5-oxo-1,2,4,5-tetrahydroimidazo[1,2-a]quinazoline-7-sulfonamide] showed an IC50 of 100 to 1000 nM. Regarding `C[C@@H]1CN=C2N(Cc3ccccc3)C(=O)c3cc(S(=O)(=O)NC4(C)CC4)ccc3N21` [Example 51, (R)-4-benzyl-1-methyl-N-(1-methylcyclopropyl)-5-oxo-1,2,4,5-tetrahydroimidazo[1,2-a]quinazoline-7-sulfonamide], the half-inhibitory concentration (IC50) fell in the range of 1000 to 10000 nM. Take `C[C@@H]1CN=C2N(C)C(=O)c3cc(S(=O)(=O)NC4(C)CC4)ccc3N21` [Example 52, (R)-1,4-dimethyl-N-(1-methylcyclopropyl)-5-oxo-1,2,4,5-tetrahydroimidazo[1,2-a]quinazoline-7-sulfonamide]: the IC50 lay within 100 to 1000 nM. `C[C@@H]1CN=C2N(Cc3cnn(CCN(C)C)c3)C(=O)c3cc(S(=O)(=O)NC4(C)CC4)ccc3N21` [Example 53, (R)-4-((1-(2-(dimethylamino)ethyl)-1H-pyrazol-4-yl)methyl)-1-methyl-N-(1-methylcyclopropyl)-5-oxo-1,2,4,5-tetrahydroimidazo[1,2-a]quinazoline-7-sulfonamide] had an IC50 of 100 to 1000 nM. Take `C[C@@H]1CN=C2N(CC3COC3)C(=O)c3cc(S(=O)(=O)NC4(C)CC4)ccc3N21` [Example 54, (R)-1-methyl-N-(1-methylcyclopropyl)-4-(oxetan-3-ylmethyl)-5-oxo-1,2,4,5-tetrahydroimidazo[1,2-a]quinazoline-7-sulfonamide]: the concentration for half-maximal inhibition (IC50) was above 10000 nM. Next, `C[C@@H]1CN=C2N(Cc3cn(C)nc3C(F)(F)F)C(=O)c3cc(S(=O)(=O)NC4(C)CC4)ccc3N21` [Example 55, (R)-1-methyl-4-((1-methyl-3-(trifluoromethyl)-1H-pyrazol-4-yl)methyl)-N-(1-methylcyclopropyl)-5-oxo-1,2,4,5-tetrahydroimidazo[1,2-a]quinazoline-7-sulfonamide]: at most 100 nM; `Cc1nnc(CN2C(=O)c3cc(S(=O)(=O)NC4(C)CC4)ccc3N3C2=NC[C@H]3C)s1` [Example 56, (R)-1-methyl-4-((5-methyl-1,3,4-thiadiazol-2-yl)methyl)-N-(1-methylcyclopropyl)-5-oxo-1,2,4,5-tetrahydroimidazo[1,2-a]quinazoline-7-sulfonamide]: at most 100 nM; `C[C@@H]1CN=C2N(Cc3cnn(C(F)F)c3)C(=O)c3cc(S(=O)(=O)NC4(C)CC4)ccc3N21` [Example 57, (R)-4-((1-(difluoromethyl)-1H-pyrazol-4-yl)methyl)-1-methyl-N-(1-methylcydopropyl)-5-oxo-1,2,4,5-tetrahydroimidazo[1,2-a]quinazoline-7-sulfonamide]: at most 100 nM.

Consider `C#CCN1C(=O)c2cc(S(=O)(=O)NC3(C)CC3)ccc2N2C1=NC[C@H]2C` [Example 58, (R)-1-methyl-N-(1-methylcyclopropyl)-5-oxo-4-(prop-2-yn-1-yl)-1,2,4,5-tetrahydroimidazo[1,2-a]quinazoline-7-sulfonamide], for which the concentration for half-maximal inhibition (IC50) is at most 100 nM. `CC#C[C@@H]1CN=C2N(Cc3cnn(C)c3)C(=O)c3cc(S(=O)(=O)NC4(C)CC4)ccc3N21` [Example 59, (R)-4-((1-methyl-1H-pyrazol-4-yl)methyl)-N-(1-methylcyclopropyl)-5-oxo-1-(prop-1-yn-1-yl)-1,2,4,5-tetrahydroimidazo[1,2-a]quinazoline-7-sulfonamide] yielded an IC50 of at most 100 nM.

Take `CC#C[C@H]1CN=C2N(Cc3cnn(C)c3)C(=O)c3cc(S(=O)(=O)NC4(C)CC4)ccc3N21` [Example 60, (S)-4-((1-methyl-1H-pyrazol-4-yl)methyl)-N-(1-methylcyclopropyl)-5-oxo-1-(prop-1-yn-1-yl)-1,2,4,5-tetrahydroimidazo[1,2-a]quinazoline-7-sulfonamide]: the IC50 fell in the range of 100 to 1000 nM.

Regarding `[2H]C([2H])(c1cnn(C)c1)N1C(=O)c2cc(S(=O)(=O)NC3(C)CC3)ccc2N2C1=NC[C@H]2C` [Example 61, (R)-1-methyl-4-((1-methyl-1H-pyrazol-4-yl)methyl-d2)-N-(1-methylcyclopropyl)-5-oxo-1,2,4,5-tetrahydroimidazo[1,2-a]quinazoline-7-sulfonamide], the IC50 is at most 100 nM. `[2H]C([2H])(c1c(C)noc1C)N1C(=O)c2cc(S(=O)(=O)NC3(C)CC3)ccc2N2C1=NC[C@H]2C` [Example 62, (R)-4-((3,5-dimethylisoxazol-4-yl)methyl-d2)-1-methyl-N-(1-methylcyclopropyl)-5-oxo-1,2,4,5-tetrahydroimidazo[1,2-a]quinazoline-7-sulfonamide] registered an IC50 of at most 100 nM. `[2H]C([2H])(c1cnc(C)s1)N1C(=O)c2cc(S(=O)(=O)NC3(C)CC3)ccc2N2C1=NC[C@H]2C` [Example 63, (R)-1-methyl-N-(1-methylcyclopropyl)-4-((2-methylthiazol-5-yl)methyl-d2)-5-oxo-1,2,4,5-tetrahydroimidazo[1,2-a]quinazoline-7-sulfonamide] showed a half-inhibitory concentration (IC50) of at most 100 nM. In turn, `Cn1cc(CN2C(=O)c3cc(S(=O)(=O)NC4(C)CC4)ccc3N3CC(C)(C)N=C23)cn1` [Example 64, 2,2-dimethyl-4-((1-methyl-1H-pyrazol-4-yl)methyl)-N-(1-methylcyclopropyl)-5-oxo-1,2,4,5-tetrahydroimidazo[1,2-a]quinazoline-7-sulfonamide] had an IC50 of at most 100 nM. Turning to `Cn1cc(CN2C(=O)c3cc(S(=O)(=O)NC4(C)CC4)ccc3N3C2=NC[C@H]3C(F)(F)F)cn1` [Example 65, (S)-1-trifluoromethyl-4-((1-methyl-1H-pyrazol-4-yl)methyl)-N-(1-methylcyclopropyl)-5-oxo-1,2,4,5-tetrahydroimidazo[1,2-a]quinazoline-7-sulfonamide], the IC50 is at most 100 nM. `C[C@@H]1CN=C2N(Cc3cnn(CC#N)c3)C(=O)c3cc(S(=O)(=O)NC4(C)CC4)ccc3N21` [Example 66, (R)-1-methyl-4-((1-cyanomethyl-1H-pyrazol-4-yl)methyl)-N-(1-methylcyclopropyl)-5-oxo-1,2,4,5-tetrahydroimidazo[1,2-a]quinazoline-7-sulfonamide]: the 50% inhibitory concentration (IC50) is at most 100 nM. `Cc1noc(C)c1CN1C(=O)c2cc(S(=O)(=O)NC3(C)CC3)ccc2N2C1=NC[C@H]2C(C)C` [Example 67, (R)-4-((3,5-dimethylisoxazol-4-yl)methyl)-1-isopropyl-N-(1-methylcyclopropyl)-5-oxo-1,2,4,5-tetrahydroimidazo[1,2-a]quinazoline-7-sulfonamide]: the concentration for half-maximal inhibition (IC50) is at most 100 nM. On to `Cc1noc(C)c1CN1C(=O)c2cc(S(=O)(=O)NC3(C)CC3)ccc2N2C1=NC[C@@H]2C(C)C` [Example 68, (S)-4-((3,5-dimethylisoxazol-4-yl)methyl)-1-isopropyl-N-(1-methylcyclopropyl)-5-oxo-1,2,4,5-tetrahydroimidazo[1,2-a]quinazoline-7-sulfonamide], for which the half-inhibitory concentration (IC50) is 1000 to 10000 nM. On to `Cc1noc(C)c1CN1C(=O)c2cc(S(=O)(=O)NC3(C)CC3)ccc2N2C1=NC[C@H]2C1CC1` [Example 69, (R)-1-cyclopropyl-4-((3,5-dimethylisoxazol-4-yl)methyl)-N-(1-methylcyclopropyl)-5-oxo-1,2,4,5-tetrahydroimidazo[1,2-a]quinazoline-7-sulfonamide], for which the IC50 is at most 100 nM. The compound `Cc1noc(C)c1CN1C(=O)c2cc(S(=O)(=O)NC3(C)CC3)ccc2N2C1=NC[C@@H]2C1CC1` [Example 70, (S)-1-cyclopropyl-4-((3,5-dimethylisoxazol-4-yl)methyl)-N-(1-methylcyclopropyl)-5-oxo-1,2,4,5-tetrahydroimidazo[1,2-a]quinazoline-7-sulfonamide] gave an IC50 of 100 to 1000 nM.
